Results reported in ChEMBL document CHEMBL1201862, “PubChem BioAssay data set” (2004).
The source made the active and inactive calls.

What was measured:
[1] = molecular target: T1, Short transient receptor potential channel 4 (Mus musculus, UniProt Q9QUQ5); assay: block of DAMGO-driven TRPC4 calcium entry – cell-based, HEK293 TRPC4/mu-opioid, Fluo-4 calcium, dose response (AID 434942); type: functional;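 further: potency of inhibitors blocking the TRPC4 calcium response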
T1 sequence (Q9QUQ5 whole entry): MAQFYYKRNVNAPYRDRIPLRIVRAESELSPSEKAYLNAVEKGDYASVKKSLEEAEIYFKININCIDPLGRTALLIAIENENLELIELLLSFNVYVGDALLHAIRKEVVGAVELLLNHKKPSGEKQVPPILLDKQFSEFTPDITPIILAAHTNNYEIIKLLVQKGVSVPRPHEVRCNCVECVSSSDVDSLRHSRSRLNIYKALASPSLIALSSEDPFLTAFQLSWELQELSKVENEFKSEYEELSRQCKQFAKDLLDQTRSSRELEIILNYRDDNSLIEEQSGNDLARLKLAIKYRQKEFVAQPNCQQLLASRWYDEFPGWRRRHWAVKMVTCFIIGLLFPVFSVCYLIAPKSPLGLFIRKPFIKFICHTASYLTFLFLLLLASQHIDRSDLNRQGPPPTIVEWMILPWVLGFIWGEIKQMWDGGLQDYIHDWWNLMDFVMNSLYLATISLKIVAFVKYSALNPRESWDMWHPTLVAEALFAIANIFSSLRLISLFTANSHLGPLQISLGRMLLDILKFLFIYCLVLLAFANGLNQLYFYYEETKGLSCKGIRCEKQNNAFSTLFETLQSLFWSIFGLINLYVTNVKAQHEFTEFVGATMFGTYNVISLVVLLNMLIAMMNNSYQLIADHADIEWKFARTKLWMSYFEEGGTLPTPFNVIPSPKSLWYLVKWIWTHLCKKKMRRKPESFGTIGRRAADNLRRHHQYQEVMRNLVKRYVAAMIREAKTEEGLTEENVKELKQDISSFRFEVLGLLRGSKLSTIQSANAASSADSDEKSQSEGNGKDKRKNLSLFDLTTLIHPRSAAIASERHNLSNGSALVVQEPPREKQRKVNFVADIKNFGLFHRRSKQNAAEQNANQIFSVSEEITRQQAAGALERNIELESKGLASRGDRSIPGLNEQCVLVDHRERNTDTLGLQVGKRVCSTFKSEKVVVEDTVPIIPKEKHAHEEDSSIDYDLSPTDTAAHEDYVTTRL

[2] = molecular target: T2, Oxysterols receptor LXR-beta (Homo sapiens, UniProt P55055); type: functional, cell-based;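 further: agonist activity at LXR measured by a cell-based luminescence readout across a dose range, run as a counterscreen for daf-12 agonists; HEK293 cells with Gal4-LXR fusion and GAL4-driven luciferase reporter; potency for activation of Gal4-LXR reporter so compounds are agonists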
T2 sequence (P55055 whole entry): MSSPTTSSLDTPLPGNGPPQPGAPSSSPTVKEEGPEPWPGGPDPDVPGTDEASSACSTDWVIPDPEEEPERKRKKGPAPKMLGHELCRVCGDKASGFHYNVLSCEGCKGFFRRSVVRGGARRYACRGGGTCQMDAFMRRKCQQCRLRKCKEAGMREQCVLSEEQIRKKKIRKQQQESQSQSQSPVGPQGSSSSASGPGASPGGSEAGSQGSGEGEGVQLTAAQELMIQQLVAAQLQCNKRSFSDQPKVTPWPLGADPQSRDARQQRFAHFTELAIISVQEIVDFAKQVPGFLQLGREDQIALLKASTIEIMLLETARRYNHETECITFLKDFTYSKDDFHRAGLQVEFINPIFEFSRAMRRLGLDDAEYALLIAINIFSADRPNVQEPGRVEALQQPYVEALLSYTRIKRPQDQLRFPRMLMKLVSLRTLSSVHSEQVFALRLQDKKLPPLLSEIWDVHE

[3] = molecular target: T3, Sentrin-specific protease 8 (Homo sapiens, UniProt Q96LD8); type: functional;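 further: luminescence read-out of SENP8 inhibition, dose-response confirmation following an ultra-high-throughput screen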
T3 sequence (Q96LD8 whole entry): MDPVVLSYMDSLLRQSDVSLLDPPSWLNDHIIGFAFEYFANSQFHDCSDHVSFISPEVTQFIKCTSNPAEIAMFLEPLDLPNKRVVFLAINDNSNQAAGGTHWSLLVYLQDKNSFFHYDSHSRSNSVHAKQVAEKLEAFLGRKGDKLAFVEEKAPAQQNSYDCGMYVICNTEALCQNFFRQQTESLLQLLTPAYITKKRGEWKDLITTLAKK

[4] = molecular target: T4, Sentrin-specific protease 7 (Homo sapiens, UniProt Q9BQF6); type: functional;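 further: Luminescence-based dose-response confirmation of ultra-high-throughput screening hits, measuring inhibition of SENP7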
T4 sequence (Q9BQF6 whole entry): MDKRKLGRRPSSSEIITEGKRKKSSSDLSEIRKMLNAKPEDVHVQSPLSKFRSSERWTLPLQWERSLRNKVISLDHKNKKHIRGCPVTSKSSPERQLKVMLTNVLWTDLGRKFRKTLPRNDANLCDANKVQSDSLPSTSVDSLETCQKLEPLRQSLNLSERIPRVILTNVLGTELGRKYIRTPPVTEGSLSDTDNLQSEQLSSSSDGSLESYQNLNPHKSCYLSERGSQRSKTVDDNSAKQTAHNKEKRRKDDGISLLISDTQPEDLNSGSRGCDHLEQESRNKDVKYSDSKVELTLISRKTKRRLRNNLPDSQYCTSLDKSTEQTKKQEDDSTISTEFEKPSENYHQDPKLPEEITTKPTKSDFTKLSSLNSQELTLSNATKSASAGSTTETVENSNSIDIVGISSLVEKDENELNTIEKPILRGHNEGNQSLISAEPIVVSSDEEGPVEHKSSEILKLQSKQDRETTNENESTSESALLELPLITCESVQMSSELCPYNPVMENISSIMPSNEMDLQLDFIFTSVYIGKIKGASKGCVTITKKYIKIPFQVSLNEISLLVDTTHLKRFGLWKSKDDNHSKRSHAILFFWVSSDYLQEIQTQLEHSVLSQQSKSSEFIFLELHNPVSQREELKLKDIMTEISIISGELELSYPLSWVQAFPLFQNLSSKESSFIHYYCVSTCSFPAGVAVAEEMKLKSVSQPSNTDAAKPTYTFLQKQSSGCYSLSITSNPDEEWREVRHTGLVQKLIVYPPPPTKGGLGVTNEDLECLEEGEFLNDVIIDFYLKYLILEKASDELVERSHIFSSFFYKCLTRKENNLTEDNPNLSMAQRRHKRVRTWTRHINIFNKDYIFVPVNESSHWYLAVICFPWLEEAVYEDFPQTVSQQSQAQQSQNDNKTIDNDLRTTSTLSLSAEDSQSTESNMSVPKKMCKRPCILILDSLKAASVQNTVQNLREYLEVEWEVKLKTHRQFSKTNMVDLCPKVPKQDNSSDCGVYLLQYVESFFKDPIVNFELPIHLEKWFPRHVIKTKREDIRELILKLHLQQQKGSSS

[5] = molecular target: T5, Caspase-3 (Homo sapiens, UniProt P42574); type: functional;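 further: Dose-response selectivity test against caspase-3 for candidate inhibitors of sentrin-specific proteases (SENPs)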
T5 sequence (P42574 whole entry): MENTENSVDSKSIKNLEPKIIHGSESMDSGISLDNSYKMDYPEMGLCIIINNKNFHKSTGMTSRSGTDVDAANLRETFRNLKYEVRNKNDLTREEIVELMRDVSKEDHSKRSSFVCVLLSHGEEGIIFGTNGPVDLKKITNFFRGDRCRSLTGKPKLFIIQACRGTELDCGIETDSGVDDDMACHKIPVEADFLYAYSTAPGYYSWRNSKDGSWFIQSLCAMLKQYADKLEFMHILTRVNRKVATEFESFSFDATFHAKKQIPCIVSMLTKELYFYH

[6] = molecular target: T6, Sentrin-specific protease 6 (Homo sapiens, UniProt Q9GZR1); type: functional;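 further: Luminescence-based dose-response confirmatory assay of SENP6 inhibition, following up an ultra-high-throughput screen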
T6 sequence (Q9GZR1 whole entry): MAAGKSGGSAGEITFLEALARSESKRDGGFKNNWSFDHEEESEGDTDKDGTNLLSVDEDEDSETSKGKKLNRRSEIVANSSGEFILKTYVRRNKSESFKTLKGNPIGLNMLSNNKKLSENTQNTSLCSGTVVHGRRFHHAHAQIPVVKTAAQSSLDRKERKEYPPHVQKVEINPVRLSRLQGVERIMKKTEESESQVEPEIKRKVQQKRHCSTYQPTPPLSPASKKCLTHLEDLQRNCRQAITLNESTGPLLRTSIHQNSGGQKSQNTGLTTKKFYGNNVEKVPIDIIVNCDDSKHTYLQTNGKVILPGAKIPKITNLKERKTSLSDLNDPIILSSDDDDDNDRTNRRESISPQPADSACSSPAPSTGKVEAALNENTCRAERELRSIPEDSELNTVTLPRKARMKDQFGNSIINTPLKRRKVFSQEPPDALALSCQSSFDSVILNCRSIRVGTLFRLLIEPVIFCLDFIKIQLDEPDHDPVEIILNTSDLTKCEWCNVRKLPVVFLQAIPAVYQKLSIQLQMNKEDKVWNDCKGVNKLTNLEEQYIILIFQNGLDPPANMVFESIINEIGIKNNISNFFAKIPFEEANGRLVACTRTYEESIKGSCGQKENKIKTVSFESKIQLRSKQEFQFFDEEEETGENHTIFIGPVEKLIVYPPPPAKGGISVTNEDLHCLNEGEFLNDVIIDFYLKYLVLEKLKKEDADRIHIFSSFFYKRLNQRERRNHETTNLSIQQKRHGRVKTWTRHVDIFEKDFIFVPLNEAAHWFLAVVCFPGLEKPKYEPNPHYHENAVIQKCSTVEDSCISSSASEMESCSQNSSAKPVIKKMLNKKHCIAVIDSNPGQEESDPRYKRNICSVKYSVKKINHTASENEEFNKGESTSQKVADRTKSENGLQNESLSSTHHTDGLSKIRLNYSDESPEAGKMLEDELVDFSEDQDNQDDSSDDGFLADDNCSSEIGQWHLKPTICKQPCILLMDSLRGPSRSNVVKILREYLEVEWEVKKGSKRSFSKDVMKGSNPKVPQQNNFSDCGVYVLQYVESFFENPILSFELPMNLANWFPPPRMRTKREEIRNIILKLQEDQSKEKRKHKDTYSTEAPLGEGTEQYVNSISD

[7] = molecular target: Heat shock protein HSP 90-alpha (Homo sapiens, UniProt P07900); type: functional, organism-based
[8] = blockers of HIV-1 ZM109 envelope-driven cell-cell fusion – HeLa effector, CEM target cells, luciferase, cherry-pick, dose response (AID 652058); type: functional, cell-based;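 further: luciferase signal from HIV-1 Env mediated cell-cell fusion of effector and target cells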
[9] = blockers of HIV-1 envelope-mediated cell-cell fusion – cherry-pick, dose response (AID 652057); type: functional, cell-based
[10] = off-target signal loss in HeLa-CEM21 co-culture – HeLa F-luc CTL cells, cherry-picked, counter-screen for HIV-1 Env fusion inhibitor project, dose response (AID 652040); type: functional, cell-based;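 further: potency for signal decrease marking cytotoxic or nonspecific inhibition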
[11] = HIV-1 AD8 envelope cell-cell fusion blockers – cherry-pick, dose response (AID 652062); type: functional, cell-based;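 further: luciferase signal from cell-cell fusion driven by HIV-1 clade B AD8 Env; potency is for inhibitors of fusion seen as a drop in luminescence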

| SMILES | IC50 [4] | IC50 [5] | IC50 [6] | IC50 [3] | also measured |
| --- | --- | --- | --- | --- | --- |
| Cc1ccc(N=C(S)N(CCCN(C)C)Cc2cc3cc4c(cc3nc2O)OCO4)c(C)c1 | – | – | – | – | EC50 [1]: 3.35 µM (active) |
| CCCCSc1ncnc2c1ncn2C1CCCCO1 (stereo unspecified) | – | – | – | – | EC50 [2]: > 67.4 µM (inactive) |
| CCOC(=O)c1c(C)oc2c1cc(O)c1ccccc12 | – | – | – | – | EC50 [2]: > 67.5 µM (inactive) |
| C=CCc1ccccc1OCC(CN1CCCCC1)OC(C)=O (stereo unspecified) | – | – | – | – | EC50 [1]: 5.31 µM (active) |
| CN(Cc1ccccc1)C(=O)CSc1nnc(-c2ccco2)n1-c1ccccc1 | – | – | – | – | EC50 [1]: 1.68 µM (active) |
| CC(=O)c1sc(Nc2nc3ccc(F)cc3s2)nc1C | 5.6 µM (active) | 18.8 µM (active) | 11.2 µM (active) | 16 µM (active) | – |
| COc1ccc(CN(C)C(=O)c2ccc(NC(=O)CC3SC(N4CCCC4)=NC3=O)cc2)c(OC)c1 (stereo unspecified) | – | – | – | – | EC50 [1]: 2.37 µM (active) |
| Cc1cc(C)c(S(=O)(=O)N2CCC(C(=O)NCc3ccc(Cl)cc3Cl)CC2)c(C)c1 | – | – | – | – | AC50 [7]: < 0.195 µM (active) |
| c1cncc(-c2noc(-c3ccc4ccccc4c3)n2)c1 | – | – | – | – | EC50 [2]: > 67.5 µM (inactive) |
| CNC(=O)c1ccsc1NC(=O)c1ccc2c(c1)CCCC2 | 5.37 µM (active) | 28.4 µM (active) | 8.31 µM (active) | 17.9 µM (active) | – |
| C#CCNC(=O)C[C@H]1C[C@@]2(C(=O)OC)C(=C[C@H](C(C)C)O[C@@H]2C2CC2)N(CCCCCCCC)C1=O | – | – | – | – | EC50 [2]: > 67.5 µM (inactive) |
| CCCC#Cc1ccc2c(c1)O[C@@H](CN(C)C(=O)C1CCCCC1)[C@H](C)CN([C@H](C)CO)S2(=O)=O | – | – | – | – | AC50 [8]: 13.3 µM (active); AC50 [9]: 21.7 µM (active) |
| CCc1c(C(=O)N2CCCN(C)CC2)csc1C | – | – | – | – | EC50 [1]: 5.96 µM (active) |
| O=C(NNCc1ccccc1)c1ccccn1 | – | – | – | – | EC50 [2]: > 67.6 µM (inactive) |
| CC(C)(C)CC(C)(C)NCC(O)COc1ccc2c(c1)CCC2 (stereo unspecified) | – | – | – | – | EC50 [1]: 3.35 µM (active) |
| C[C@H]1CNC(=O)c2c(C(=O)N3CCN(c4ccccc4)CC3)ncn21 | – | – | – | – | AC50 [10]: 9.62 µM (active); AC50 [11]: 7.04 µM (active); AC50 [8]: 3.25 µM (active); AC50 [9]: 4.6 µM (active) |

Further lines, with some results ahead:

| IC50 [4] | IC50 [5] | IC50 [6] | SMILES | IC50 [3] | also measured |
| --- | --- | --- | --- | --- | --- |
| 5.03 µM (active) | 13.3 µM (active) | 8.1 µM (active) | COc1ccc(-n2nc3cc(N)c(Br)cc3n2)cc1 | 11 µM (active) | – |
| 6.8 µM (active) | 25.5 µM (active) | 36.4 µM (active) | Cc1ccc(-c2noc(CSc3ccccc3)n2)cc1 | 13.7 µM (active) | – |
| 5.51 µM (active) | 21.4 µM (active) | 11.9 µM (active) | Cc1ccc(OCc2nc(-c3cccs3)no2)c([N+](=O)[O-])c1 | 10.2 µM (active) | – |
| 8.88 µM (active) | 32.2 µM (active) | 18 µM (active) | COc1ccc(/C=C2/CCc3ccccc3C2=O)cc1OC | 17 µM (active) | – |
| 4.68 µM (active) | 31.4 µM (active) | > 100 µM (inactive) | Cc1cc(C)c(O)c(-c2cc(C(=O)Nc3cccnc3)[nH]n2)c1 | > 100 µM (inactive) | – |
